Tested on: cells that overexpress MCT1
Assay: Cytotoxicity (GI50) of bromopyruvate in cells not expressing MCT1 (-TET) and induced to express MCT1 (+TET)
Format: cell-based
Conditions: GI50, +TET vs -TET cells; FIG. 2

O=C(O)C(=O)CBr [bromopyruvate, Bromopyruvate]
fold higher toxicity to cells that overexpress MCT1: more than 20 times

Source: patent US20070231260A1, “Transporter-targeted methods of diagnosis and treatment” (priority 2005, published 2007)
